Source: publication PMC12507699, “SLC45A4 is a pain gene encoding a neuronal polyamine transporter” (Nature, 2025)

Legend:
SLC45A4 [1] = target: T1, SLC45A4 (Homo sapiens, UniProt Q5BKX6); assay: competition of […]-SPD uptake in Neuro-2A cells overexpressing SLC45A4; also nanoDSF on purified protein; type: cell-based; set-up: full-length human SLC45A4
T1 sequence (Q5BKX6 1-768): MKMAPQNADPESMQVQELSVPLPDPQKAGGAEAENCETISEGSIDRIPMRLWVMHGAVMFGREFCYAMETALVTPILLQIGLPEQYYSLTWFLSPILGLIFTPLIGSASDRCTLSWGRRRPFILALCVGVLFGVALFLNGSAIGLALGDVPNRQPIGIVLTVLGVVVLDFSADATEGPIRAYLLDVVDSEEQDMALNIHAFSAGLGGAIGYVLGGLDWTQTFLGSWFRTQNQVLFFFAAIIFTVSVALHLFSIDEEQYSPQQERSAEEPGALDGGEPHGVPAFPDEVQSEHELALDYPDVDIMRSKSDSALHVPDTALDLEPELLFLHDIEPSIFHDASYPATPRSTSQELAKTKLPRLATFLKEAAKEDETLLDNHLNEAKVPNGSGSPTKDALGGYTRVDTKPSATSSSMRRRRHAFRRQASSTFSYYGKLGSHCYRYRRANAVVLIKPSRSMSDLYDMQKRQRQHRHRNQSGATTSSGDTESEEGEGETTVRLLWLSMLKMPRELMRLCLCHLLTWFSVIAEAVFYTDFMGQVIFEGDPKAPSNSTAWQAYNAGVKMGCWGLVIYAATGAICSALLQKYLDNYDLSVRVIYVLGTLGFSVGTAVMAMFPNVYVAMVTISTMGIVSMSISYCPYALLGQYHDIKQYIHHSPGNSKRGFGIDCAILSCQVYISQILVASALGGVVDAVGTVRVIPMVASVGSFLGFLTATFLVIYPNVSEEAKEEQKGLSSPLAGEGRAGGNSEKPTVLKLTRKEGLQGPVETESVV

SLC45A4 [2] = target: T1, SLC45A4; assay: […]-SPD uptake and homologous competition in Neuro-2A cells overexpressing SLC45A4; also nanoDSF destabilization of purified protein in detergent and nanodiscs; type: cell-based; set-up: full-length human SLC45A4
SLC45A4 [3] = target: T1, SLC45A4; assay: cell-based

IC50 (SLC45A4 [1]) [µM] | SMILES | also measured
67 | NCCCCCN [Cad, cadaverine] | 
74 | NCCCCN [Put, putrescine] | 
 | NCCCCNCCCN [SPD, spermidine] | IC50 (SLC45A4 [2]): 123 µM
 | NCCCNCCCCNCCCN [Spm, spermine] | IC50 (SLC45A4 [3]): 240 µM
